For experiment [1], the target named is T1, Histone deacetylase 3 (Homo sapiens, UniProt O15379). In words: Inhibition of human KDAC3 at 30 uM using FITC-labeled p53 acetylated peptide as substrate after 60 mins by fluorescence assay relative to control.
The target in experiment [2] is T2, Protein deacetylase HDAC6 (Homo sapiens) (UniProt Q9UBN7).
T2 sequence (whole entry): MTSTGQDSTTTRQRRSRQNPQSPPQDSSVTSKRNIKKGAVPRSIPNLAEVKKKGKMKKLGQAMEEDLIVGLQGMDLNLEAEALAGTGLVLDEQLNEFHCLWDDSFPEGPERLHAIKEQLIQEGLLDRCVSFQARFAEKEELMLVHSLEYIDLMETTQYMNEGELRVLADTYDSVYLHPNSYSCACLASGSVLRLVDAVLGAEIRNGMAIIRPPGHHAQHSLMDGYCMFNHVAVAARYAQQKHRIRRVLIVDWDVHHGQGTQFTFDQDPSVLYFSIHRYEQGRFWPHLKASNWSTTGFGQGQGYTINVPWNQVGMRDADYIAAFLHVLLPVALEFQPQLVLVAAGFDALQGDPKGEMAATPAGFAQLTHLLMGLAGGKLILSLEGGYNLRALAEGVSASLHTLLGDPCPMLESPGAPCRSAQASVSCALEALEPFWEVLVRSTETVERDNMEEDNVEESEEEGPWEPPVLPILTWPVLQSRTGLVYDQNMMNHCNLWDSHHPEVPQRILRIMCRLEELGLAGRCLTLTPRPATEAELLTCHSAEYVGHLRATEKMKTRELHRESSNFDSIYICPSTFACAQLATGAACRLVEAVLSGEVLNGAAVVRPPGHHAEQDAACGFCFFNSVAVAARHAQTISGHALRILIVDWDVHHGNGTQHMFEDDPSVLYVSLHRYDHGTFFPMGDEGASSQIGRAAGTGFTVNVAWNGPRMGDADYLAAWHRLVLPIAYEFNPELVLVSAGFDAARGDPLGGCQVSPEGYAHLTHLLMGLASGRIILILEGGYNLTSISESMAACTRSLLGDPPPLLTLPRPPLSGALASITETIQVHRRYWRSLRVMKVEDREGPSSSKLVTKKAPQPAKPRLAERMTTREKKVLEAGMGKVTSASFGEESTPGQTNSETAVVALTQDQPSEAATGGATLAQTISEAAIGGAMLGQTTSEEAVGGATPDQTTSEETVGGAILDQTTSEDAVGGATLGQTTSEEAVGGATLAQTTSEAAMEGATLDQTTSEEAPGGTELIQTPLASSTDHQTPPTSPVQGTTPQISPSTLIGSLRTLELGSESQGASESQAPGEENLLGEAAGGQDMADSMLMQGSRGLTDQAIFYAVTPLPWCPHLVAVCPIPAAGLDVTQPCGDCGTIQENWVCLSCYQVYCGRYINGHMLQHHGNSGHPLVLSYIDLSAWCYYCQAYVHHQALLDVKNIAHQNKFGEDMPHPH
The conditions noted are these: at 30 µM.
Description: Inhibition of human KDAC6 at 30 uM using FITC-labeled histone H4 acetylated peptide as substrate after 60 mins by fluorescence assay relative to control

For experiment [3], the target named is T3, Histone deacetylase 8 (Homo sapiens) (UniProt Q9BY41).
T3 sequence (whole entry): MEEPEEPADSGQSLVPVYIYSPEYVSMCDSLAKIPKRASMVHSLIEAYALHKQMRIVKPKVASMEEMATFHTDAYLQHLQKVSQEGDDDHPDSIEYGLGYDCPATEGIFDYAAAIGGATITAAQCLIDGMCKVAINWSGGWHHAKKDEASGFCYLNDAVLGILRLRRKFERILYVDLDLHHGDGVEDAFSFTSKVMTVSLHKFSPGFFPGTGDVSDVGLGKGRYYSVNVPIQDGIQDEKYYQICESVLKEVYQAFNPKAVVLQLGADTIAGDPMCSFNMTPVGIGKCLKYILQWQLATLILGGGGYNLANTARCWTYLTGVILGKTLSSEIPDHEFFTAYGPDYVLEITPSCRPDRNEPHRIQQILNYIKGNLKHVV
Nature of the experiment: Inhibition of human KDAC8 at 30 uM after 60 mins by fluorescence assay relative to control.

For another experiment, the target named is T4, Histone deacetylase 8 (Homo sapiens, UniProt Q9BY41).
T4 sequence (Q9BY41 whole entry): T3 sequence (whole entry)
In words: Inhibition of human KDAC8 after 60 mins by fluorescence assay.

Experiment [4] addresses T5, Histone deacetylase 1 (Homo sapiens, UniProt Q13547). In words: Inhibition of human KDAC1 at 30 uM using substrate A after 60 mins by fluorescence assay relative to control.
Experiment [5] concerns the target T1, Histone deacetylase 3. In words: Inhibition of human KDAC3 using FITC-labeled p53 acetylated peptide as substrate after 60 mins by fluorescence assay.
Experiment [6] has as its target T5, Histone deacetylase 1. Nature of the experiment: Inhibition of human KDAC1 using substrate A after 60 mins by fluorescence assay.
Experiment [7] addresses T6, Protein deacetylase HDAC6 (Homo sapiens, UniProt Q9UBN7).
T6 sequence (Q9UBN7 whole entry): T2 sequence (whole entry)
Nature of the experiment: Inhibition of human KDAC6 using FITC-labeled histone H4 acetylated peptide as substrate after 60 mins by fluorescence assay.

T5 sequence (Q13547 whole entry): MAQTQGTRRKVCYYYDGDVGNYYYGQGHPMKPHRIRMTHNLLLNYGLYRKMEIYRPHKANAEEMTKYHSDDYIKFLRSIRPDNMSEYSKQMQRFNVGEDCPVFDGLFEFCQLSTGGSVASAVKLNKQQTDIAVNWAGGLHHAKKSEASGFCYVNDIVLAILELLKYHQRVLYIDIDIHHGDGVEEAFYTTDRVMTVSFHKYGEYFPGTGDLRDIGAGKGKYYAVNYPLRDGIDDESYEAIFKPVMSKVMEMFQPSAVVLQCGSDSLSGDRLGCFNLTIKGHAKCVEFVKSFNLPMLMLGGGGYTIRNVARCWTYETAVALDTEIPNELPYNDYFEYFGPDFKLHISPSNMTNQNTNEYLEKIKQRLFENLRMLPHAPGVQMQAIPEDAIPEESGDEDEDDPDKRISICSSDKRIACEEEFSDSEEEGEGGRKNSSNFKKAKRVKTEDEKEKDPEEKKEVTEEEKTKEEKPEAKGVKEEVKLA
T1 sequence (O15379 whole entry): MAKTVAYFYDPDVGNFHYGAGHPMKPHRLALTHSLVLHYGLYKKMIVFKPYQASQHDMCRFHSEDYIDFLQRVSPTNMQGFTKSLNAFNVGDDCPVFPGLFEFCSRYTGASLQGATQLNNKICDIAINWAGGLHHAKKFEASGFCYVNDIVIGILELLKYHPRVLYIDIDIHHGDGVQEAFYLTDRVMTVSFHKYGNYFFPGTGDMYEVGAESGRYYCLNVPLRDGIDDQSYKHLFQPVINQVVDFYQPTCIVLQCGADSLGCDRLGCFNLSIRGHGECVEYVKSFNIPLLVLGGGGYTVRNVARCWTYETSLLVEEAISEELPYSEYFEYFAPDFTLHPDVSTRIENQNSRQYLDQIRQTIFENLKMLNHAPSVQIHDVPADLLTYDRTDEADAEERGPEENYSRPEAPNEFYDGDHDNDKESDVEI

One may read the inhibition as the share of the control response that was lost under treatment. Lower therefore signals a response near the control. As a reminder, the IC50 is the concentration that gives 50% inhibition. With `CC[C@H](C)[C@@H]1N=C(c2ccccc2)c2ccccc2NC1=O`, the inhibition on Histone deacetylase 3 [1] stood at 0.56%; in experiment [2], 1.82%; in experiment [3], 0%; against Histone deacetylase 1 [4], 6.77%. Further, the IC50 (at Histone deacetylase 8; at Histone deacetylase 3 [5]; on Histone deacetylase 1 [6]; in experiment [7]) was over 30 µM throughout.
Consider `CC(C)(C)OC[C@@H]1N=C(c2ccccc2)c2ccccc2NC1=O`, for which the inhibition against Histone deacetylase 3 [1] came out at 0.38%; in experiment [2], 2.44%; in experiment [3] it was 0%; on Histone deacetylase 1 [4] it was 1.48%. Further, the concentration for half-maximal inhibition (IC50) (at Histone deacetylase 8; against Histone deacetylase 3 [5]; at Histone deacetylase 1 [6]; in experiment [7]) was over 30 µM in each case.
For the molecule `COC(=O)CCCCN1C(=O)[C@@H](CSC(C)(C)C)N=C(c2ccccc2)c2ccccc21`, the inhibition stood at 0% against Histone deacetylase 3 [1], 0% in experiment [2], 0% in experiment [3] and 3.94% on Histone deacetylase 1 [4]. The IC50 (against Histone deacetylase 8; at Histone deacetylase 3 [5]; against Histone deacetylase 1 [6]; in experiment [7]) was over 30 µM in each case.
Consider `CC(C)(C)OC(=O)NCCCC[C@@H]1N=C(c2ccccc2)c2ccccc2N(CCCCC(=O)NO)C1=O`, for which the inhibition was 98.8% on Histone deacetylase 3 [1], 89.9% in experiment [2], 56% in experiment [3] and 84.4% against Histone deacetylase 1 [4]. For the same molecule, the IC50 on Histone deacetylase 8 came to 21.8 µM; against Histone deacetylase 3 [5] it was 0.59 µM; against Histone deacetylase 1 [6], 4.63 µM; in experiment [7] it was 3.06 µM.
Regarding `O=C1Nc2ccccc2C(c2ccccc2)=N[C@H]1Cc1cn(C(c2ccccc2)(c2ccccc2)c2ccccc2)cn1`, the inhibition worked out at 0% against Histone deacetylase 3 [1], 12.3% in experiment [2], 13.4% in experiment [3] and 8.26% against Histone deacetylase 1 [4]. The IC50 (on Histone deacetylase 8; against Histone deacetylase 3 [5]; on Histone deacetylase 1 [6]; in experiment [7]) was over 30 µM throughout.
In the case of `NCCCC[C@@H]1N=C(c2ccccc2)c2ccccc2N(CCCCC(=O)NO)C1=O`, the inhibition at Histone deacetylase 3 [1] was 99.1%; in experiment [2], 73.4%; in experiment [3], 7.7%; against Histone deacetylase 1 [4], 79.5%. Moreover, the IC50 is over 30 µM at Histone deacetylase 8, 0.95 µM against Histone deacetylase 3 [5], 6.54 µM against Histone deacetylase 1 [6] and 12.1 µM in experiment [7].
As for `CC(C)(C)OC[C@@H]1N=C(c2ccccc2)c2ccccc2N(CCCCC(=O)O)C1=O`, the inhibition against Histone deacetylase 3 [1] was 0%; in experiment [2] it was 0%; in experiment [3] it was 5.87%; on Histone deacetylase 1 [4], 3.74%. The IC50 (against Histone deacetylase 8; against Histone deacetylase 3 [5]; against Histone deacetylase 1 [6]; in experiment [7]) was over 30 µM each time.
For `CC(C)[C@@H]1N=C(c2ccccc2)c2ccccc2NC1=O`, the inhibition worked out at 0% against Histone deacetylase 3 [1], 3.25% in experiment [2], 0% in experiment [3] and 0% against Histone deacetylase 1 [4]. Besides, the IC50 (at Histone deacetylase 8; at Histone deacetylase 3 [5]; against Histone deacetylase 1 [6]; in experiment [7]) was over 30 µM each time.
For `O=C(CCCCN1C(=O)[C@H](Cc2cc3ccccc3[nH]2)N=C(c2ccccc2)c2ccccc21)NO`, the inhibition at Histone deacetylase 3 [1] was determined as 98.9%; in experiment [2], 93.2%; in experiment [3], 34.1%; on Histone deacetylase 1 [4] it was 60%. Besides, the half-inhibitory concentration (IC50) against Histone deacetylase 8 was over 30 µM; on Histone deacetylase 3 [5], 1.01 µM; on Histone deacetylase 1 [6] it was 16.8 µM; in experiment [7] it was 1.95 µM.
`COC(=O)CCCCN1C(=O)[C@H](COC(C)(C)C)N=C(c2ccccc2)c2ccccc21`: the inhibition at Histone deacetylase 3 [1] was determined as 0%; in experiment [2], 0%; in experiment [3] it was 5%; on Histone deacetylase 1 [4], 0.36%. Also, the IC50 (against Histone deacetylase 8; against Histone deacetylase 3 [5]; at Histone deacetylase 1 [6]; in experiment [7]) was over 30 µM each time.
As for `C[C@@H](OCc1ccccc1)[C@@H]1N=C(c2ccccc2)c2ccccc2N(CCCCC(=O)NO)C1=O`, the inhibition at Histone deacetylase 3 [1] turned out to be 97.2%; in experiment [2], 98.1%; in experiment [3], 50.1%; on Histone deacetylase 1 [4] it was 82.4%. The IC50 against Histone deacetylase 8 was 29.5 µM; against Histone deacetylase 3 [5], 0.91 µM; against Histone deacetylase 1 [6], 4.55 µM; in experiment [7], 2.05 µM.
In the case of `O=C(CC[C@@H]1N=C(c2ccccc2)c2ccccc2NC1=O)NO`, the inhibition on Histone deacetylase 3 [1] was determined as 4.57%; in experiment [2], 36.5%; in experiment [3], 43.8%; at Histone deacetylase 1 [4], 64.4%. The IC50 is over 30 µM against Histone deacetylase 8, over 30 µM against Histone deacetylase 3 [5], 16.9 µM on Histone deacetylase 1 [6] and over 30 µM in experiment [7].
For the molecule `C[C@@H]1N=C(c2ccccc2)c2ccccc2N(CCCCC(=O)O)C1=O`, the inhibition worked out at 0% against Histone deacetylase 3 [1], 0.27% in experiment [2], 8.87% in experiment [3] and 11.3% on Histone deacetylase 1 [4]. Besides, the IC50 (on Histone deacetylase 8; on Histone deacetylase 3 [5]; on Histone deacetylase 1 [6]; in experiment [7]) was over 30 µM in each case.
In the case of `CC(C)(C)OC(=O)C[C@H]1N=C(c2ccccc2)c2ccccc2NC1=O`, the inhibition on Histone deacetylase 3 [1] is 0%; in experiment [2], 0%; in experiment [3], 0%; at Histone deacetylase 1 [4], 0.37%. Also, the IC50 (at Histone deacetylase 8; against Histone deacetylase 3 [5]; on Histone deacetylase 1 [6]; in experiment [7]) was over 30 µM throughout.
`O=C(C[C@@H]1N=C(c2ccccc2)c2ccccc2NC1=O)NC(c1ccccc1)(c1ccccc1)c1ccccc1`: the inhibition came to 0% against Histone deacetylase 3 [1], 0% in experiment [2], 0% in experiment [3] and 4.31% at Histone deacetylase 1 [4]. Besides, the IC50 (at Histone deacetylase 8; against Histone deacetylase 3 [5]; at Histone deacetylase 1 [6]; in experiment [7]) was over 30 µM in each case.
As for `CC(C)[C@@H]1N=C(c2ccccc2)c2ccccc2N(CCCCC(=O)NO)C1=O`, the inhibition at Histone deacetylase 3 [1] was 97%; in experiment [2], 95.5%; in experiment [3] it was 59.4%; at Histone deacetylase 1 [4], 81.4%. Further, the IC50 at Histone deacetylase 8 is 19.8 µM; against Histone deacetylase 3 [5], 0.6 µM; against Histone deacetylase 1 [6], 5.27 µM; in experiment [7] it was 1.35 µM.
`O=C(O)CC[C@H]1N=C(c2ccccc2)c2ccccc2NC1=O`: the inhibition against Histone deacetylase 3 [1] amounted to 0%; in experiment [2], 0%; in experiment [3] it was 0%; against Histone deacetylase 1 [4], 10.2%. Besides, the IC50 (against Histone deacetylase 8; at Histone deacetylase 3 [5]; on Histone deacetylase 1 [6]; in experiment [7]) was over 30 µM throughout.
On to `O=C(O)C[C@H]1N=C(c2ccccc2)c2ccccc2NC1=O`, for which the inhibition against Histone deacetylase 3 [1] worked out at 0%; in experiment [2] it was 0%; in experiment [3], 0%; at Histone deacetylase 1 [4], 0.74%. Moreover, the concentration for half-maximal inhibition (IC50) (against Histone deacetylase 8; at Histone deacetylase 3 [5]; at Histone deacetylase 1 [6]; in experiment [7]) was over 30 µM in each case.

For the origin of these results see ChEMBL document CHEMBL3997794, “Design and synthesis of benzodiazepine analogs as isoform-selective human lysine deacetylase inhibitors” (Eur J Med Chem, 2017).
